≈ marks a conversion by molar mass, not a printed value.
Experiment: Solubility of HMR 3647
Type: physicochemical
Experimental: HMR 3647 has the chemical formula C43H65N5O10 and has a molecular weight of 812.0 g/mol. […] At acidic pH, the solubility can be increased to 80 mg/ml, since the protonated cation is formed at this pH.

CC[C@H]1OC(=O)[C@H](C)C(=O)[C@H](C)[C@@H](O[C@@H]2O[C@H](C)C[C@H](N(C)C)[C@H]2O)[C@](C)(OC)C[C@@H](C)C(=O)[C@H](C)[C@H]2N(CCCCn3cnc(-c4cccnc4)c3)C(=O)O[C@]12C [HMR 3647]
solubility (aqueous medium at acidic pH, aqueous buffer, acidic pH, protonated cation): 80 mg/mL (≈ 98.5 mM) | water solubility (water): very poorly water-soluble

— US20040241239A1, “Mixed complexes for masking the taste of bitter active substances” (priority 2001, published 2004)
